Reference: paper PMC9389588, “1,6-epi-Cyclophellitol Cyclosulfamidate Is a Bona Fide Lysosomal α-Glucosidase Stabilizer for the Treatment of Pompe Disease” (Journal of the American Chemical Society, 2022)

Tests used:
β-glucosidase GBA2 = molecular target: T1, β-glucosidase GBA2 (Homo sapiens, UniProt Q9HCG7); experiment: in vitro apparent IC50, GBA2-overexpressing HEK293T lysate; assay type: biochemical; settings: apparent IC50, pH 5.8, mean ± SD
T1 construct: expressed in transfected cells; host or cells: HEK293T
T1 sequence (Q9HCG7 1-927): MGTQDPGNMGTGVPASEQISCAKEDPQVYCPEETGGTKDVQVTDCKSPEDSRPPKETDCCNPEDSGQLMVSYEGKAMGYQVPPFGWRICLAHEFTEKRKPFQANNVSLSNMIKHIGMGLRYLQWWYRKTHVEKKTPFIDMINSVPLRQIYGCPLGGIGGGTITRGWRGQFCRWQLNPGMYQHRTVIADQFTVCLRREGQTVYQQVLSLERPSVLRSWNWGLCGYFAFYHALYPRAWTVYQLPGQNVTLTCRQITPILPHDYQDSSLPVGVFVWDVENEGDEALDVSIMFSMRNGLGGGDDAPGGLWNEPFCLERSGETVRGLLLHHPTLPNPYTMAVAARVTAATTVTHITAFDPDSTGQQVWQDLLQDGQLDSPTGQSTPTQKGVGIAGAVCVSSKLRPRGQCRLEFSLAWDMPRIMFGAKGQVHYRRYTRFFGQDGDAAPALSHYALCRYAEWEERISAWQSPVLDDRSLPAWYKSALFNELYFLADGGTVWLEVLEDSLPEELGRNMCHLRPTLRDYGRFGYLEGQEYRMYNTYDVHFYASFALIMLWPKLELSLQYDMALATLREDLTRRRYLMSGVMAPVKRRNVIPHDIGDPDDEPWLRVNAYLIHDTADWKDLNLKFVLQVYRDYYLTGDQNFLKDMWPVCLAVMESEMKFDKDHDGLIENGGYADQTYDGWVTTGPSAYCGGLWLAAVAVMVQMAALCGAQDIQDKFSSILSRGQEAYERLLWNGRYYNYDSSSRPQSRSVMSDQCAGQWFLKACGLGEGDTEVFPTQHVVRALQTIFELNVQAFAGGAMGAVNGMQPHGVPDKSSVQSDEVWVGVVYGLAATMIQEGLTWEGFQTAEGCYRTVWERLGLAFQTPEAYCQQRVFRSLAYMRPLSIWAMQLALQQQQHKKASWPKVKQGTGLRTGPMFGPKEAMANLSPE

rhGAA (Myozyme) [1] = molecular target: T2, rhGAA (Myozyme) (Homo sapiens, UniProt P10253); experiment: time-dependent inhibition of GAA; assay type: biochemical; settings: preincubation 15-240 min at apparent IC50 concentration
T2 construct: purchased Sanofi Genzyme
Method: 2.1 Biochemical and Biological Methods
2.1.1 In vitro apparent IC50 experiments
To determine in vitro apparent IC50 values, 40 μL of enzyme-mixture was pre-incubated with 40 μL of inhibitor for […]
and 2% DMSO (v/v). GANAB in 150 mM McIlvaine buffer pH 7.0, 0.1% BSA (w/v) and 2% DMSO (v/v). GBA1 in 150 mM McIlvaine buffer pH 5.2, 0.2% Taurocholate (w/v), 0.1% Triton X-100 (v/v), 0.1% BSA (w/v), 2% DMSO (v/v). GBA2 in 150 mM McIlvaine pH 5.8, 0.1% BSA (w/v).
After preincubation, 25 μL of E+I mixture was added to a 96 wells plate and 100 μL substrate solution in the appropriate buffer was subsequently added. GAA activity was measured using final concentrations of 47 nM enzyme (Myozyme) and 3.0 mM 4-MU-α-D-glucopyranoside, for 30 minutes at 37 ℃. GANAB activity was measured using wt fibroblasts and 2.4 mM 4-MU-α-D-glucopyranoside, for 2 h at 37 ℃. GBA1 activity was measured using final concentrations of 0.7 nM enzyme (Cerezyme) and 3.0 mM 4-methylumbeliferone(4-MU)-β-D-glucopyranoside, for 30 min at 37 ℃. GBA2 residual activity was measured using cellular homogenates of HEK293T over-expressing GBA2 pre-incubated for 30 min with a GBA1 inhibitor (1 µM 37 (ME656), see Figure S1 for chemical structure), and further incubation with 3.0 mM 4-methylumbeliferone(4MU)-β-D-glucopyranoside […]

rhGAA (Myozyme) [2] = molecular target: T2, rhGAA (Myozyme); experiment: thermostability assay of Myozyme, Tycho NT.6; assay type: binding

Structure (SMILES): O=S1(=O)N[C@@H]2[C@H](O)[C@@H](O)[C@H](O)[C@@H](CO)[C@@H]2O1 [compound 4, 1,6-epi-cyclophellitol cyclosulfamidate]
- IC50 (β-glucosidase GBA2): > 500 µM
- type of inhibition (rhGAA (Myozyme) [1]): competitive manner
- maximum shift in inflection temperature (ΔTimax) (rhGAA (Myozyme) [2]; Myozyme 1 μM, 0-20 μM compound, pH 6.5): 11.2 °C
- EC50 (rhGAA (Myozyme) [2]; Myozyme 1 μM, 0-20 μM compound, pH 6.5, read-out: EC50 of thermal stabilization): 1.16 µM

Structure (SMILES): O=S1(=O)N[C@H]2[C@H](CO)[C@@H](O)[C@H](O)[C@@H](O)[C@H]2O1 [compound 6]
- IC50 (β-glucosidase GBA2): > 500 µM
- type of inhibition (rhGAA (Myozyme) [1]): irreversible inhibitor
- effect on rhGAA thermostability, in words (rhGAA (Myozyme) [2]; increasing temperature): does not prevent enzyme unfolding
